# Source: US20240018133A1, “MODULATORS OF THE INTEGRATED STRESS PATHWAY” (Calico Life Sciences LLC, priority 2019, published 2024)
# Tested on: ATF4 luciferase reporter (human full-length ATF4 5'-UTR fused to firefly luciferase) in HEK293T cells
# Experiment: ATF4-Luc assay (in vitro model of VWMD): HEK293T cells carrying ATF4 luciferase reporter, tunicamycin-treated
# Format: cell-based
# Conditions: Homo sapiens, HEK-293T, 1 μg/mL tunicamycin, 7 hours, One Glo luminescence
# Procedure, shortened: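 Reporter cells were stably generated by retroviral transduction and puromycin selection, then seeded at 30,000 cells/well. Next day, cells received 1 μg/mL tunicamycin with 200 nM test compound for 7 h, and luciferase luminescence was read with a one-step reagent. Values reported as EC50.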
smiles,measurement,value
"O=C(NC12CCC(NC(=O)[C@H]3C[C@@H](O)c4cc(Cl)ccc4O3)(C1)C2)c1ccc(C(F)(F)F)cc1 [Compound 374, (2R,4R)-6-chloro-4-hydroxy-N-{4-[4-(trifluoromethyl)benzamido]bicyclo[2.1.1]hexan-1-yl}-3,4-dihydro-2H-1-benzopyran-2-carboxamide]",EC50,250 to 500 nM
"O=C(COc1ccc(Cl)c(F)c1)N[C@@H]1C[C@@H]2O[C@H]1C[C@H]2NC(=O)[C@H]1C[C@@H](O)c2cc(Cl)ccc2O1 [Compound 375, (2R,4R)-6-chloro-N-{(1S,2R,4S,5R)-5-[2-(4-chloro-3-fluorophenoxy)acetamido]-7-oxabicyclo[2.2.1]heptan-2-yl}-4-hydroxy-3,4-dihydro-2H-1-benzopyran-2-carboxamide]",EC50,< 10 nM
"O=C(NC12CC(NC(=O)[C@H]3C[C@@H](O)c4cc(Cl)ccc4O3)(C1)C2)c1ccc(OC(F)(F)F)cn1 [Compound 376, N-(3-{[(2R,4R)-6-chloro-4-hydroxy-3,4-dihydro-2H-1-benzopyran-2-carbonyl]amino}bicyclo[1.1.1]pentan-1-yl)-5-(trifluoromethoxy)pyridine-2-carboxamide]",EC50,10 to 50 nM
"O=C(NC12CC(NC(=O)[C@H]3C[C@@H](O)c4cc(Cl)ccc4O3)(C1)C2)c1ccc(OC(F)(F)F)nc1 [Compound 377, N-(3-{[(2R,4R)-6-chloro-4-hydroxy-3,4-dihydro-2H-1-benzopyran-2-carbonyl]amino}bicyclo[1.1.1]pentan-1-yl)-6-(trifluoromethoxy)pyridine-3-carboxamide]",EC50,50 to 250 nM
"O=C(NC12CC(NC(=O)[C@H]3C[C@@H](O)c4cc(Cl)ccc4O3)(C1)C2)c1ccc(Cl)c(F)c1 [Compound 378, (2R,4R)-6-chloro-N-[3-(4-chloro-3-fluorobenzamido)bicyclo[1.1.1]pentan-1-yl]-4-hydroxy-3,4-dihydro-2H-1-benzopyran-2-carboxamide]",EC50,50 to 250 nM
"O=C(NC12CC(NC(=O)[C@H]3CC(=O)c4cc(Cl)ccc4O3)(C1)C2)c1ccc(OC(F)(F)F)cn1 [Compound 379, N-(3-{[(2R)-6-chloro-4-oxo-3,4-dihydro-2H-1-benzopyran-2-carbonyl]amino}bicyclo[1.1.1]pentan-1-yl)-5-(trifluoromethoxy)pyridine-2-carboxamide]",EC50,500 to 2000 nM
"O=C(NC12CC(NC(=O)[C@H]3C[C@@H](O)c4cc(Cl)ccc4O3)(C1)C2)c1cnn([C@H]2C[C@@H](OC(F)(F)F)C2)c1 [Compound 381, N-(3-{[(2R,4R)-6-chloro-4-hydroxy-3,4-dihydro-2H-1-benzopyran-2-carbonyl]amino}bicyclo[1.1.1]pentan-1-yl)-1-[cis-3-(trifluoromethoxy)cyclobutyl]-1H-pyrazole-4-carboxamide]",EC50,< 10 nM
"Cc1cnc(C(=O)NC23CC(NC(=O)[C@H]4C[C@@H](O)c5cc(Cl)ccc5O4)(C2)C3)cn1 [Compound 382, N-(3-{[(2R,4R)-6-chloro-4-hydroxy-3,4-dihydro-2H-1-benzopyran-2-carbonyl]amino}bicyclo[1.1.1]pentan-1-yl)-5-methylpyrazine-2-carboxamide]",EC50,50 to 250 nM
"O=C(NC12CC(NC(=O)[C@H]3C[C@@H](O)c4cc(Cl)ccc4O3)(C1)C2)c1cnc(C2CC2)o1 [Compound 383, N-(3-{[(2R,4R)-6-chloro-4-hydroxy-3,4-dihydro-2H-1-benzopyran-2-carbonyl]amino}bicyclo[1.1.1]pentan-1-yl)-2-cyclopropyl-1,3-oxazole-5-carboxamide]",EC50,50 to 250 nM
"CCc1ncc(C(=O)NC23CC(NC(=O)[C@H]4C[C@@H](O)c5cc(Cl)ccc5O4)(C2)C3)o1 [Compound 384, N-(3-{[(2R,4R)-6-chloro-4-hydroxy-3,4-dihydro-2H-1-benzopyran-2-carbonyl]amino}bicyclo[1.1.1]pentan-1-yl)-2-ethyl-1,3-oxazole-5-carboxamide]",EC50,50 to 250 nM
